For this experiment, the target named is T1, IRAK4 (Homo sapiens, UniProt Q9NWZ3).
T1 construct: endogenous in cells; host or cells: THP-1 cells
T1 sequence (Q9NWZ3 1-460): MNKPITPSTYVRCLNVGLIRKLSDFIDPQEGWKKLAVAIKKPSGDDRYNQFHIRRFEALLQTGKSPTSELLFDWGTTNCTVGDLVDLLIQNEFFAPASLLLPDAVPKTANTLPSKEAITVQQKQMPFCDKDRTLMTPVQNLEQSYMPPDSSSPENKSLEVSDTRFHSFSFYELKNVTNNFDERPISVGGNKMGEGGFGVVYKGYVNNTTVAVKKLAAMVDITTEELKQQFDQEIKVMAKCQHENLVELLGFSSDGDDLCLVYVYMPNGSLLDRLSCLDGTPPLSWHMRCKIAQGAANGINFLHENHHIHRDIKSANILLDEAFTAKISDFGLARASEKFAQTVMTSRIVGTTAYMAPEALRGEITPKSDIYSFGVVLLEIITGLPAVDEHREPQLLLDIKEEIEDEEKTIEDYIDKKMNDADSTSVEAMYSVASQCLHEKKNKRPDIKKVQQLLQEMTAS
The experiment can be described thus: LVL THP1 HTRF (THP1 Homogeneous Time Resolved Fluorescence). The experiment is classed as cell-based. The following applies: THP1 cells, 18 h incubation with compound; for DC50: read-out: LVL THP1 HTRF EC50. The method, then:
Cell culture media was prepared in a tissue culture hood in a sterile environment by adding 10% FBS and 1% Penicillin Streptomycin to 500 mL no phenol red RPMI 1640 media. The media was filtered through a Nalgene Bottle Top Filter and stored at 4° C.
For Homogenous Time Resolved Fluorescence (HTRF) assays, a Cisbio HTRF kit was used, which included: Lysis Buffer #1 4×, Blocking Reagent #3 100×, 20× Antibody 1 (Anti-IRAK4 d2), 20× Antibody 2 (Anti-IRAK4 k), and Detection Buffer.
The THP1 plates were prepared by the following method. For each dosing plate, a duplicate for CTG assay was prepared. Two THP-1 T-175 flasks could be used to plate one 384 well plate. The cells were collected from two T-175 flasks into 200 mL centrifuge tubes and spun down at 1200 rpm for 10 min. The supernatant was removed completely and cells were resuspended in 7.5 mL cell culture media. To 5 μL of the cell suspension was added 25 μL of media and 30 μL of Trypan Blue stain. The cells were counted using countess (automated cell counter, Thermo Fisher Scientific) twice and the viability and live cell count was recorded. The actual cell count was […] the live cell count. Based on the count, a cell suspension was prepared in colorless RPMI media for a final concentration of 7.5e6 cells/mL. Using Standard cassette multidrop combi, 20 μL of the 7.5e6 cells/mL cell stock was added to entire 384 well plate but for top half of column 1 (negative control) The multidrop combi was always primed to achieve a steady flow and washed after use with 20 mL de-ionized water followed by 20 mL alcohol. The cells were incubated in 5% CO2 incubator at 37° C.
Dosing was conducted using the following method. To dose assay plates and CTG plate was added 20 nL of compounds in DMSO using Echo (Beckman Coulter), and the plates were incubated at 37° C. for 18 h. The compound plates were spun at 1200 rpm for 1 min before dosing. The compound plate was sealed and properly stored during incubation.
After dosing, an HTRF assay was conducted using the following method. The treatment plates (IRAK4_HTRF) were centrifuged at 600 g for 10 min. Using CyBio Felix, Automated liquid handler (Analytikjena), 13 μL cell culture media was removed. To all columns, 7.5 μL lysis buffer was added, and an additional 7.5 μL of lysis buffer was added to column 1(top half, negative control). The plate was incubated on a shaker at room temperature for 2 h. The plate was spun down at 600 g for 5 min. Custom 20×IRAK4 Antibody obtained from CISBIO Anti-IRAK4-d2 (acceptor Ab) and Anti-IRAK4-K (donor Ab) were diluted to 1× antibody mix Using a multichannel repeater, 4 μL of 1× antibody mix was added to each wellThe plate was spun down at 600 g for 5 min and incubated in the dark at room temperature for 18 h The next day (after 18 hrs), HTRF assay plate was spun down at 600 g for 5 min and read at 665/615 nm using a Envision plate reader.
In general terms: TR-FRET usually uses a lanthanide donor and a delayed reading to cut background.

Consider `C[C@H](C#N)Nc1cc(-n2ncc3cc(C#N)cnc32)ncc1-n1cc([C@H]2CC[C@H](CCN3CC[C@H]4[C@@H]3CCN4c3ccc([C@@]4(C)CCC(=O)NC4=O)nc3)CC2)nn1` (single isomer, unassigned) [P-287], for which the “LVL THP1 HTRF YMIN” value is listed as 51.0% and the DC50 stood at 1.35 µM.

`C[C@H](C#N)Nc1cc(-n2ncc3cc(C#N)cnc32)ncc1-n1cc([C@H]2CC[C@H](CCN3CC[C@H]4[C@@H]3CCN4c3ccc([C@@]4(C)CCC(=O)NC4=O)nc3)CC2)nn1` (single isomer, unassigned) [P-288]: the “LVL THP1 HTRF YMIN” value turned out to be 4.7% and the DC50 was found to be 0.0071 µM.

As for `C[C@H](C#N)Nc1cc(-n2ncc3cc(C#N)cnc32)ncc1-n1cc([C@H]2CC[C@H](CCN3CCN(c4ccc([C@@]5(C)CCC(=O)NC5=O)nc4)[C@@H](C)C3)CC2)nn1` (single isomer, unassigned) [P-289], the “LVL THP1 HTRF YMIN” value was 7.7% and the DC50 amounted to 0.0113 µM.

`C[C@H](C#N)Nc1cc(-n2ncc3cc(C#N)cnc32)ncc1-n1cc([C@H]2CC[C@H](CCN3CCN(c4ccc([C@@]5(C)CCC(=O)NC5=O)nc4)[C@@H](C)C3)CC2)nn1` (single isomer, unassigned) [P-290]: the “LVL THP1 HTRF YMIN” value worked out at 33.6% and the DC50 is 0.253 µM.

In the case of `C[C@H](C#N)Nc1cc(-n2ncc3cc(C#N)cnc32)ncc1-n1cc([C@H]2CC[C@](O)(CCN3CCN(c4ccc([C@@]5(C)CCC(=O)NC5=O)cc4)[C@@H](C)C3)CC2)nn1` (single isomer, unassigned) [P-291], the “LVL THP1 HTRF YMIN” value is given as −4.4% and the DC50 was determined as 0.0577 µM.

Turning to `C[C@H](C#N)Nc1cc(-n2ncc3cc(C#N)cnc32)ncc1-n1cc([C@H]2CC[C@](O)(CCN3CCN(c4ccc([C@@]5(C)CCC(=O)NC5=O)cc4)CC3)CC2)nn1` (single isomer, unassigned) [P-292], the “LVL THP1 HTRF YMIN” value was 7.2% and the DC50 turned out to be 0.032 µM.

As to `C[C@H](C#N)Nc1cc(-n2ncc3cc(C#N)cnc32)ncc1-n1cc([C@H]2CC[C@](O)(CCN3CCN(c4ccc([C@@]5(C)CCC(=O)NC5=O)cn4)CC3)CC2)nn1` (single isomer, unassigned) [P-293], the “LVL THP1 HTRF YMIN” value was found to be 10.5% and the DC50 amounted to 0.0658 µM.

As for `C[C@H](C#N)Nc1cc(-n2ncc3cc(C#N)cnc32)ncc1-n1cc([C@H]2CC[C@](O)(CCN3CCN(c4ccc([C@@]5(C)CCC(=O)NC5=O)nc4)CC3)CC2)nn1` (single isomer, unassigned) [P-294], the “LVL THP1 HTRF YMIN” value is 76.0% and the DC50 is 1.23 µM.

`C[C@H](C#N)Nc1cc(-n2ncc3cc(C#N)cnc32)ncc1-n1cc([C@H]2CC[C@](O)(CCN3CCN(c4ccc([C@@]5(C)CCC(=O)NC5=O)nc4)CC3)CC2)nn1` (single isomer, unassigned) [P-295]: the “LVL THP1 HTRF YMIN” value is recorded as 39.8% and the DC50 is 0.35 µM.

In the case of `COc1cc([C@@]2(C)CCC(=O)NC2=O)ccc1N1CCN(CC[C@H]2CC[C@H](c3cn(-c4cnc(-n5ncc6cc(C#N)c(N)nc65)cc4N[C@H](C)C#N)nn3)CC2)C[C@@H]1C` (single isomer, unassigned) [P-302], the “LVL THP1 HTRF YMIN” value came to 3.3% and the DC50 is 0.0105 µM.

Consider `COc1cc([C@@]2(C)CCC(=O)NC2=O)ccc1N1CCN(CC[C@H]2CC[C@H](c3cn(-c4cnc(-n5ncc6cc(C#N)c(N)nc65)cc4N[C@H](C)C#N)nn3)CC2)C[C@@H]1C` (single isomer, unassigned) [P-303], for which the “LVL THP1 HTRF YMIN” value was 90.1% and the DC50 came out at 0.111 µM.

For the molecule `COc1cc([C@@]2(C)CCC(=O)NC2=O)ccc1N1CCN(CC[C@H]2CC[C@H](c3cn(-c4cnc(-n5ncc6cc(C#N)c(N)nc65)cc4N[C@H](C)C#N)nn3)CC2)C[C@H]1C` (single isomer, unassigned) [P-304], the “LVL THP1 HTRF YMIN” value came out at 5.0% and the DC50 was 0.0119 µM.

Turning to `COc1cc([C@@]2(C)CCC(=O)NC2=O)ccc1N1CCN(CC[C@H]2CC[C@H](c3cn(-c4cnc(-n5ncc6cc(C#N)c(N)nc65)cc4N[C@H](C)C#N)nn3)CC2)C[C@H]1C` (single isomer, unassigned) [P-305], the “LVL THP1 HTRF YMIN” value is listed as 84.3% and the DC50 stood at 0.0002 µM.

For the molecule `C[C@H](C#N)Nc1cc(-n2ncc3cc(C#N)c(N)nc32)ncc1-n1cc([C@H]2CC[C@H](CCN3CCN(c4ccc([C@@]5(C)CCC(=O)NC5=O)nc4)CC3)CC2)nn1` (single isomer, unassigned) [P-306], the “LVL THP1 HTRF YMIN” value turned out to be 1.5% and the DC50 worked out at 0.0037 µM.

In the case of `C[C@H](C#N)Nc1cc(-n2ncc3cc(C#N)c(N)nc32)ncc1-n1cc([C@H]2CC[C@H](CCN3CCN(c4ccc([C@@]5(C)CCC(=O)NC5=O)nc4)CC3)CC2)nn1` (single isomer, unassigned) [P-307], the “LVL THP1 HTRF YMIN” value is 86.3% and the DC50 amounted to 0.0066 µM.

With `C[C@H](C#N)Nc1cc(-n2ncc3cc(C#N)c(N)nc32)ncc1-n1cc([C@H]2CC[C@H](CCN3CCN(c4ccc([C@@]5(C)CCC(=O)NC5=O)nn4)CC3)CC2)nn1` (single isomer, unassigned) [P-308], the “LVL THP1 HTRF YMIN” value is 3.5% and the DC50 was determined as 0.0021 µM.

Turning to `C[C@H](C#N)Nc1cc(-n2ncc3cc(C#N)c(N)nc32)ncc1-n1cc([C@H]2CC[C@H](CCN3CCN(c4ccc([C@@]5(C)CCC(=O)NC5=O)nn4)CC3)CC2)nn1` (single isomer, unassigned) [P-309], the “LVL THP1 HTRF YMIN” value worked out at 96.8% and the DC50 amounted to 1 µM.

Take `C[C@H](C#N)Nc1cc(-n2ncc3cc(C#N)cnc32)ncc1-n1cc([C@H]2CC[C@H](CCN3CC[C@H]4[C@@H]3CCN4c3ccc([C@@]4(C)CCC(=O)NC4=O)cn3)CC2)nn1` (single isomer, unassigned) [P-312]: the “LVL THP1 HTRF YMIN” value was 7.9% and the DC50 is 0.0132 µM.

Consider `C[C@H](C#N)Nc1cc(-n2ncc3cc(C#N)cnc32)ncc1-n1cc([C@H]2CC[C@H](CCN3CC[C@H]4[C@@H]3CCN4c3ccc([C@@]4(C)CCC(=O)NC4=O)cn3)CC2)nn1` (single isomer, unassigned) [P-313], for which the “LVL THP1 HTRF YMIN” value worked out at 44.9% and the DC50 was 0.244 µM.

On to `C[C@H](C#N)Nc1cc(-n2ncc3cc(C#N)cnc32)ncc1-n1cc([C@H]2CC[C@H](CCN3CC[C@@H](c4ccc([C@@]5(C)CCC(=O)NC5=O)cc4)C(F)(F)C3)CC2)nn1` (single isomer, unassigned) [P-314], for which the “LVL THP1 HTRF YMIN” value is recorded as 6.5% and the DC50 was found to be 0.0218 µM.

In the case of `C[C@H](C#N)Nc1cc(-n2ncc3cc(C#N)c(N)nc32)ncc1-n1cc([C@H]2CC[C@H](CCN3CCC(c4ccc([C@@]5(F)CCC(=O)NC5=O)cc4)CC3)CC2)nn1` (single isomer, unassigned) [P-317], the “LVL THP1 HTRF YMIN” value is listed as 2.0% and the DC50 was 0.0013 µM.

For the molecule `C[C@H](C#N)Nc1cc(-n2ncc3cc(C#N)c(N)nc32)ncc1-n1cc([C@H]2CC[C@H](CCN3CCC(c4ccc([C@@]5(F)CCC(=O)NC5=O)cc4)CC3)CC2)nn1` (single isomer, unassigned) [P-318], the “LVL THP1 HTRF YMIN” value was 47.8% and the DC50 turned out to be 0.374 µM.

As for `C[C@H](C#N)Nc1cc(-n2ncc3cc(C#N)c(N4C[C@H]5C[C@@H]4CO5)nc32)ncc1-n1cc([C@H]2CC[C@H](CCN3CCC(c4ccc([C@@]5(F)CCC(=O)NC5=O)cc4)CC3)CC2)nn1` (single isomer, unassigned) [P-319], the “LVL THP1 HTRF YMIN” value is given as 87.9% and the DC50 came out at 1 µM.

These data come from patent publication US20240109881A1, “Heteroaryl Compounds as Ligand Directed Degraders of IRAK4” (Bristol-Myers Squibb Company, priority 2022, published 2024).
